In the NIST ThermoML archive (doi:10.1021/je100148h):

Test: xn = mol fraction of the nth substance listed
Details: Fluid (supercritical or subcritical phases), Burnett expansion method

CCC [propane] + O=C=O
Details | mass density [kg/m3]
319.99 K, 766.06 kPa, x2 = 0.8017 | 13.1764
320 K, 410.29 kPa, x2 = 0.8017 | 6.9285
320 K, 561.41 kPa, x2 = 0.8017 | 9.5546
320 K, 1040.9 kPa, x2 = 0.8017 | 18.1699
320 K, 1137.2 kPa, x2 = 0.5158 | 20.5385
320 K, 1406.4 kPa, x2 = 0.8017 | 25.056
320 K, 1885.5 kPa, x2 = 0.8017 | 34.5507
320 K, 2500.6 kPa, x2 = 0.8017 | 47.6423
320 K, 3266.5 kPa, x2 = 0.8017 | 65.693
320.01 K, 158.39 kPa, x2 = 0.8017 | 2.6416
320.01 K, 177.71 kPa, x2 = 0.5158 | 2.9791
320.01 K, 217.81 kPa, x2 = 0.8017 | 3.6431
320.01 K, 244.02 kPa, x2 = 0.5158 | 4.1102
320.01 K, 299.21 kPa, x2 = 0.8017 | 5.0239
320.01 K, 334.43 kPa, x2 = 0.5158 | 5.6704
320.01 K, 457.2 kPa, x2 = 0.5158 | 7.8226
320.01 K, 622.82 kPa, x2 = 0.5158 | 10.7917
320.01 K, 844.37 kPa, x2 = 0.5158 | 14.8878
320.01 K, 1518.1 kPa, x2 = 0.5158 | 28.332
320.01 K, 1999.6 kPa, x2 = 0.5158 | 39.0832
320.01 K, 2584 kPa, x2 = 0.5158 | 53.9126
329.98 K, 579.89 kPa, x2 = 0.8017 | 9.5517
329.99 K, 791.85 kPa, x2 = 0.8017 | 13.1719
329.99 K, 1457.4 kPa, x2 = 0.8017 | 25.0477
329.99 K, 3418.1 kPa, x2 = 0.8017 | 65.6701
330 K, 308.75 kPa, x2 = 0.8017 | 5.0223
330 K, 423.55 kPa, x2 = 0.8017 | 6.9261
330 K, 1958.2 kPa, x2 = 0.8017 | 34.5379
330 K, 2604.9 kPa, x2 = 0.8017 | 47.625
330 K, 4401.1 kPa, x2 = 0.8017 | 90.5446
330.01 K, 163.4 kPa, x2 = 0.8017 | 2.6407
330.01 K, 183.36 kPa, x2 = 0.5158 | 2.9774
330.01 K, 224.73 kPa, x2 = 0.8017 | 3.6418
330.01 K, 251.86 kPa, x2 = 0.5158 | 4.1078
330.01 K, 345.31 kPa, x2 = 0.5158 | 5.667
330.01 K, 472.35 kPa, x2 = 0.5158 | 7.8181
330.01 K, 644.04 kPa, x2 = 0.5158 | 10.7856
330.01 K, 874.2 kPa, x2 = 0.5158 | 14.879
330.01 K, 1077.1 kPa, x2 = 0.8017 | 18.1629
330.01 K, 1179.4 kPa, x2 = 0.5158 | 20.5259
330.01 K, 1578.5 kPa, x2 = 0.5158 | 28.3153
330.01 K, 2086.8 kPa, x2 = 0.5158 | 39.0593
330.01 K, 2711.7 kPa, x2 = 0.5158 | 53.8795
330.01 K, 3442.6 kPa, x2 = 0.5158 | 74.3214
339.99 K, 598.29 kPa, x2 = 0.8017 | 9.5479
339.99 K, 817.54 kPa, x2 = 0.8017 | 13.1668
339.99 K, 1508.1 kPa, x2 = 0.8017 | 25.0378
340 K, 231.59 kPa, x2 = 0.8017 | 3.6405
340 K, 436.79 kPa, x2 = 0.8017 | 6.9234
340 K, 2030.2 kPa, x2 = 0.8017 | 34.5251
340 K, 2708.2 kPa, x2 = 0.8017 | 47.606
340 K, 3567.9 kPa, x2 = 0.8017 | 65.643
340 K, 4621.3 kPa, x2 = 0.8017 | 90.5058
340.01 K, 168.38 kPa, x2 = 0.8017 | 2.6397
340.01 K, 189.01 kPa, x2 = 0.5158 | 2.9763
340.01 K, 259.67 kPa, x2 = 0.5158 | 4.1062
340.01 K, 318.3 kPa, x2 = 0.8017 | 5.0202
340.01 K, 487.5 kPa, x2 = 0.5158 | 7.8151
340.01 K, 665.18 kPa, x2 = 0.5158 | 10.7812
340.01 K, 903.91 kPa, x2 = 0.5158 | 14.873
340.01 K, 1113.1 kPa, x2 = 0.8017 | 18.156
340.01 K, 1221.3 kPa, x2 = 0.5158 | 20.5179
340.01 K, 1638.3 kPa, x2 = 0.5158 | 28.3036
340.01 K, 2172.9 kPa, x2 = 0.5158 | 39.0436
340.01 K, 2837.3 kPa, x2 = 0.5158 | 53.8584
340.01 K, 3628.8 kPa, x2 = 0.5158 | 74.2902
340.01 K, 4509 kPa, x2 = 0.5158 | 102.472
340.01 K, 5849.8 kPa, x2 = 0.8017 | 124.787
340.02 K, 356.19 kPa, x2 = 0.5158 | 5.6647
350.01 K, 173.33 kPa, x2 = 0.8017 | 2.6389
350.01 K, 194.63 kPa, x2 = 0.5158 | 2.9748
350.01 K, 267.49 kPa, x2 = 0.5158 | 4.1042
350.01 K, 367.05 kPa, x2 = 0.5158 | 5.662
350.01 K, 502.56 kPa, x2 = 0.5158 | 7.8112
350.01 K, 616.66 kPa, x2 = 0.8017 | 9.5444
350.01 K, 686.24 kPa, x2 = 0.5158 | 10.776
350.01 K, 843.17 kPa, x2 = 0.8017 | 13.1618
350.01 K, 933.45 kPa, x2 = 0.5158 | 14.8658
350.01 K, 1149 kPa, x2 = 0.8017 | 18.1499
350.01 K, 1263 kPa, x2 = 0.5158 | 20.5077
350.01 K, 1558.6 kPa, x2 = 0.8017 | 25.0284
350.01 K, 1697.7 kPa, x2 = 0.5158 | 28.2897
350.01 K, 2101.9 kPa, x2 = 0.8017 | 34.5131
350.01 K, 2258.2 kPa, x2 = 0.5158 | 39.0243
350.01 K, 2810.8 kPa, x2 = 0.8017 | 47.5894
350.01 K, 2961.5 kPa, x2 = 0.5158 | 53.8306
350.01 K, 3716.3 kPa, x2 = 0.8017 | 65.6181
350.01 K, 3812 kPa, x2 = 0.5158 | 74.2525
350.01 K, 4782.9 kPa, x2 = 0.5158 | 102.417
350.01 K, 4838.8 kPa, x2 = 0.8017 | 90.4734
350.01 K, 5812.8 kPa, x2 = 0.5158 | 141.262
350.02 K, 238.49 kPa, x2 = 0.8017 | 3.6392
350.02 K, 327.8 kPa, x2 = 0.8017 | 5.0187
350.02 K, 450.01 kPa, x2 = 0.8017 | 6.9209
350.02 K, 6175.3 kPa, x2 = 0.8017 | 124.74
360.01 K, 200.24 kPa, x2 = 0.5158 | 2.9738
360.01 K, 275.27 kPa, x2 = 0.5158 | 4.1028
360.01 K, 377.87 kPa, x2 = 0.5158 | 5.66
360.01 K, 517.62 kPa, x2 = 0.5158 | 7.8085
360.01 K, 707.21 kPa, x2 = 0.5158 | 10.7723
360.01 K, 962.87 kPa, x2 = 0.5158 | 14.8606
360.01 K, 1184.7 kPa, x2 = 0.8017 | 18.1432
360.01 K, 1304.5 kPa, x2 = 0.5158 | 20.5005
360.01 K, 1608.9 kPa, x2 = 0.8017 | 25.0192
360.01 K, 1756.6 kPa, x2 = 0.5158 | 28.2797
360.01 K, 2173.2 kPa, x2 = 0.8017 | 34.4994
360.01 K, 2342.9 kPa, x2 = 0.5158 | 39.0102
360.01 K, 2912.6 kPa, x2 = 0.8017 | 47.5708
360.01 K, 3084.3 kPa, x2 = 0.5158 | 53.8108
360.01 K, 3992.6 kPa, x2 = 0.5158 | 74.2241
360.01 K, 5052 kPa, x2 = 0.5158 | 102.377
